# Patent US12410152B2, “Oxazole and thioazole-type cullin ring ubiquitin ligase compounds and uses thereof” (Proxygen GmbH, priority 2019, dated 2025)
# Tested on: CDK12/13
# Experiment: CDK12/13 destabilization (expression proteomics and Western blot)
# Format: cell-based, human
# Details: KBM7 cells
# Protocol: The hypomorphic phenotype of the mutated UBE2M allele in KBM7 cells (KBM7 UBE2M^mut cells) was assessed. In this regard, CRISPR/Cas9-induced mutation of UBE2M inactivated CRL activity including CRL4^CRBN and CRL2^VHL. […] Additionally, CCNK destabilization by all three compounds was validated via time-resolved immunoblots wherein CCNK degradation was evident after two hours (FIG. 19c).
# PBS-washed cell pellets were lysed in 50 mM Tris pH 7.9, 8M Urea and 1% CHAPS and incubated with shaking at 4° C. for at least 30 min. 20 μg of supernatants were run and transferred for detection. Antibodies used: CUL1 (Santa Cruz Biotechnology, sc-1276), CUL2 (Sigma-Aldrich, SAB2501565-100), CUL3 (Cell Signaling Technology, 2759), CUL4A (Cell Signaling Technology, 2699S), CUL4B (Proteintech, 12916-1-AP), CUL5 (Santa Cruz Biotechnology, sc-373822), UBE2M (Santa Cruz Biotechnology, sc-390064), DDB1 (Cell Signaling Technology, 5428S), CCNK (Bethyl, A301-939A), CDK12 (Cell Signaling Technology, 11973S), CDK13 (Bethyl, A301-458A), RBM39 (1:500, Santa Cruz Biotechnology sc-376531), V5 (Cell Signaling Technology, 13202), Ubiquityl-Histone H2A (K119) (Cell Signaling, 8240-20). ACTIN (Sigma-Aldrich, A5441), VINCUL1N (Santa Cruz Biotechnology, sc-25336). Secondary antibodies anti-mouse/rabbit/goat (Jackson ImmunoResearch 115-035-003, 111-035-003 and 705-035-003).
# Comparison of overall proteome-wide changes in KBM7 cells treated with IC020772.1 (2.5 μM), IC021313.2 (7 μM) or T6938051 (3.5 μM) for 5 h and 12h, using quantitative proteomics based on isobaric tagging.
row,SMILES,CDK12/13 destabilization
1,O=C(CSc1nnc2c(n1)[nH]c1ccccc12)Nc1ccc(Cl)cn1 [IC020772.1],milder CDK12/13 destabilization
2,Cc1ccc(C(=O)N2CSCC2C(=O)N=c2[nH]cc(C)s2)o1 (stereo not drawn) [Compound T6938051],milder CDK12/13 destabilization
3,O=C(CSc1nc2ccccc2[nH]1)Nc1ccc(Cl)cn1 [IC021313.2],milder CDK12/13 destabilization
